Where two headings read alike, the source gives them in different places.
Tests used:
[1] = system: intestinal passage of carbo adsorbens; experiment: intestinal passage of carbo adsorbens, mice; format: in vivo; conditions: for intestinal passage of carbo adsorbens, complete intestine: atropin 5 mg/kg, reference 75.0 ± 1.9
Protocol: (§1) The active substance in 20 mg dose per one kg, if administered 30 minutes before administering castor oil, has extended the latent period up to the beginning of the diarrhea from 91.2±4.4 minutes to 127.3±6.3 minutes. […] (Table 1).
(§2) TABLE 1 - Influence of pharmaceutical substances on the intestinal passage of carbo adsorbens (100% is the complete intestine length): […]

[2] = system: intestinal passage of carbo adsorbens; experiment: intestinal passage of carbo adsorbens, rats; format: in vivo; conditions: for intestinal passage of carbo adsorbens, small intestines: 100% is the complete intestine length, substance 20 mg/kg, atropin 5 mg/kg, reference 58.7 ± 2.5
Protocol: as §1, §2

[3] = system: rat; conditions: in vivo
[4] = system: mice; conditions: mouse, in vivo
[5] = in vivo; conditions: mouse
[6] = system: mice; experiment: teratological and embryotoxic experiments on mice
[7] = V. Nosalova et al 1986; cited from earlier work
[8] = in vivo; conditions: rabbit
[9] = in vivo; conditions: guinea pig
[10] = system: mice; experiment: castor oil-provoked diarrhea in mice; format: in vivo; conditions: 20 mg/kg, 30 minutes before castor oil; control 91.2±4.4 minutes
[11] = cited from earlier work
[12] = system: Escherichia coli
[13] = system: mice; conditions: mouse, in vivo; remark: listed apart in the source
[14] = system: calves; experiment: reduction of diarrhea occurrence in new-born calves; format: in vivo
Protocol: With the referenoe individuals (n=66) diarrhea has occurred with about 80% thereof. The medicament of the invention, if administered for 2 to 3 days in a 10 mg daily dose, reduced the diarrhea ocourrence by 40-50%, and with a 20 mg d aily dose during 3 days of administration even less than 4% (P<0.01). In the control group of calves to which no medicament was administered, a multiple mortality has been observed.

[15] = system: rats; experiment: one month toxicity study of rats; format: in vivo
[16] = system: Salmonella typhimurium; experiment: mutation tests and reparative tests, Salmonella typhimurium
[17] = in vivo; conditions: rat
[18] = retention of stomach content; format: in vivo; conditions: active substance 10-20 mg/kg; atropin dose not stated
[19] = system: adenylate cyclase; conditions: Hynie et al 1986; cited from earlier work
[20] = system: dogs (beagle); experiment: chronic six months toxicity study on dogs; format: in vivo
[21] = 100% is the complete intestine length, substance 20 mg/kg

Compound: CN1C2CCC1CC(OC(=O)C(CO)c1ccccc1)C2 (stereo not shown) [atropin, reference compound]
- intestinal passage of carbo adsorbens, complete intestine [1, 21]: 51.4 ± 2.6%
- intestinal passage of carbo adsorbens, small intestines [2]: 46.3 ± 2.5%

Compound: CCCCCOc1cccc(NC(=O)O[C@@H]2CCCC[C@H]2N2CCCC2)c1 (relative stereo) [substance of the formula, (±)-trans-2(1-pyrrolidinyl) cyclohexylester of 3-(n)-pentyloxycarbanilic acid]
- LD50 ([3]; ip): 75 mg/kg
- LD50 ([3]; iv): 13.8 mg/kg
- LD50 ([3]; po): 1030 mg/kg
- LD50 ([3]; sc): 283 mg/kg
- influence on passage of intestine content (in words) [1]: does not significantly influence the passage of intestine content
- intestinal passage of carbo adsorbens, complete intestine [1, 21]: 80.3 ± 1.2%
- intestinal passage of carbo adsorbens, small intestine ([1]; 100% is the complete intestine length, substance 20 mg/kg, reference 91.7 ± 2.2): 96.6 ± 0.95%
- occurrence of skeletal abnormalities [4]: the same as in the reference group
- LD50 ([5]; ip): 56 mg/kg
- LD50 ([5]; iv): 10.3 mg/kg
- LD50 ([5]; po): 790 mg/kg
- LD50 ([5]; sc): 122 mg/kg
- fetal weight, implantates, placenta and amniotic liquor ([6]; 0.21, 2.1, 8.4, 21, 42, 84 mg/kg): no changes in the amounts of fetal weight implantates, placenta and amniotio liquor were found
- fetuses with palate fissure ([6]; only at highest dose of 84 mg/kg): less than 10%
- antiulcerose / gastric cytoprotective effect [7]: antiulcerose effects with a marked gastric cytoprotective effect
- LD50 ([8]; ip): 46.5 mg/kg
- LD50 ([8]; iv): 2.92 mg/kg
- LD50 ([9]; iv): 7.8 mg/kg
- LD50 ([9]; sc): 73.2 mg/kg
- latent period up to the beginning of the diarrhea [10]: 127.3 ± 6.3 min
- influence on passage of intestine content (in words) [2]: does not significantly influence the passage of intestine content
- intestinal passage of carbo adsorbens, small intestines [2]: 60.1 ± 1.5%
- locally anaesthetic effect ([11]; L. Benes et al 1969): exhibits the well-known locally anaesthetic effects
- locally anaesthetic and spasmolytic effects ([11]; P. Svec et al 1976): locally anaesthetic and spasmolytic effects
- locally anaesthetic activity at decreased pH ([11]; media with decreased pH value at the acid side, S. Stole et al 1978): maintenance of its locally anaesthetic activity even in media with decreased pH value at the acid side
- mutation changes in reparative tests [12]: have not been observed
- qualitative or quantitative mutations [12]: have not been observed
- LD50 ([13]; ip): 59 mg/kg
- LD50 ([13]; po): 840 mg/kg
- LD50 ([13]; sc): 128 mg/kg
- mortality of untreated control calves compared with treated calves (in words) ([14]; bovine, in vivo): a statistically considerably higher number perish
- reduction of diarrhea occurrence ([14]; calves, average 40 kg, 10 mg daily dose, 2 to 3 days, reference about 80% (n=66)): 40-50%
- diarrhea occurrence (printed as: reduced ... even less than 4%) ([14]; calves, average 40 kg, 20 mg daily dose, 3 days, P<0.01, reference about 80% (n=66)): less than 4%
- reduction of diarrhea (in words) ([14]; calves, 10 and 20 mg per diem, one to three days after birth): significant reduction of diarrhea with involved animals depending upon the dose applied
- hematological, biochemical and morphological indices or animal weight ([15]; p.o. 0.1, 1, 10 mg/kg): neither hematological, biochemical and morphological indices or the animal weight have not been considerably influenced
- influence on behavior ([15]; p.o. 0.1, 1, 10 mg/kg): has not shown any influence on the behavior of animals
- increase in weight ([15]; p.o., two highest doses): in some cases lower than average
- mutation changes in reparative tests [16]: have not been observed
- qualitative or quantitative mutations [16]: have not been observed
- LD50 ([17]; ip): 70 mg/kg
- LD50 ([17]; iv): 11.8 mg/kg
- LD50 ([17]; po): 1110 mg/kg
- LD50 ([17]; sc): 295 mg/kg
- retention of stomach content [18]: unchanged
- reduction of adenylate cyclase activity [19]: a significant reduction of adenylate cyclase activity
- changes in weight of dogs ([20]; both sexes, six months, p.o. 2, 10, 30 mg/kg): has not exhibited with doses of 2; 10; 30 mg/kg any extensive changes in the weight of dogs
- harmfulness of the substance in the six months period ([20]; p.o., dose range up to 2 mg/kg): no proofs about any harmfulness of the substance
- toxicity at the high doses (weight, behavior, mortality) ([20]; six months, p.o., two highest doses): a decrease in weight, defective behavior and mortality have occurred
- toxic effect in hematological, biochemical and morphological indices ([20]; six months, p.o., two lower doses): No toxic effect in hematological, biochemical and morphological indices has been observed with the two lower doses
- heart activity and psychomotoric changes ([20]; six months, p.o., two lower doses (exception)): minor changes in the heart activity, and particularly by influencing the pulse conductivity and further by psychomotoric unrest
